This passage reports IC50 results from patent publication US5665745A, “Heterocyclic compounds and their preparation and use” (Eli Lilly and Company, priority 1995, dated 1997).

Like-named read-outs stand apart in the source and are kept apart here.

Test [1] has as its target muscarinic acetylcholine receptors. Kind of test: inhibition of specific binding of ^3 H-Oxotremorine-M (^3 H-Oxo). On the set-up: species or system rat (male Wistar. To be noted: ^3 H-Oxotremorine 1.0 nM, rat cortex, 30 min. at 25° C. The text has this: The pharmacological properties of the compounds of the invention can be illustrated by determining their capability to inhibit the specific binding of ^3 H-Oxotremorine-M (^3 H-Oxo). Birdsdall N. J. M., Hulme E. C., and Burgen A. S. V. (1980). "The Character of Muscarinic Receptors in Different Regions of the Rat Brain" Proc. Roy. Soc. London (Series B) 207,1.
^3 H-Oxo labels muscarinic receptor in the CNS (with a preference for agonist domains of the receptors). Three different sites are labeled by ^3 H-Oxo. […] Using the present experimental conditions only the high and medium affinity sites are determined.
The inhibitory effects of compounds on ^3 H-oxo binding reflects the affinity for muscarinic acetylcholine receptors.
All preparations are performed at 0°-4° C. unless otherwise indicated. Fresh cortex (0.1-1 g) from male Wistar rats (150-250 g) is homogenized for 5-10 seconds in 10 mL […] Hepes pH: 7.4, with an Ultra-Turrax homogenizer. The homogenizer is rinsed with 10 mL of buffer and the combined suspension centrifuged for 15 min. at 40,000×g. The pellet is washed three times with buffer. In each step the pellet is homogenized as before in 2×10 mL of buffer and centrifuged for 10 min. at 40,000×g.
The final pellet is homogenized in 20 mM Hepes pH: 7.4 (100 mL per g of original tissue) and used for binding assay. Aliquots of 0.5 mL is added 25 μL of test solution and 25 μL of ^3 H-Oxotremorine (1.0 nM, final concentration) mixed and incubated for 30 min. at 25° C. Non-specific binding is determined in triplicate using arecoline ([…], final concentration) as the test substance. After incubation samples are added 5 mL of ice-cold buffer and poured directly onto Whatman GF/C glass fiber filters under suction and immediately washed 2 times with 5 mL of ice-cold buffer. The amount of radioactivity on the filters are determined by conventional liquid scintillation counting. Specific binding is total binding minus non specific binding.
Test substances are dissolved in 10 mL water (if necessary heated on a steam-bath for less than 5 min.) at a concentration of 2.2 mg/mL. […] The test value will be given as IC50 (the concentration (nM) of the test substance which inhibits the specific binding of ^3 H-oxo by 50%). IC50 =(applied test substance concentration) x(Cx /Co -Cx)nM where Co is specific binding in control assays and Cx is the specific binding in the test assay. (The calculations assume normal mass-action kinetics).

For test [2], the target named is T1, muscarinic receptors (M1 -site, pirenzepine sensitive site) (Rattus norvegicus, UniProt P08482).
T1 construct: from tissue; host or cells: cerebral cortex membranes of male Wistar rats
T1 sequence (P08482 1-460): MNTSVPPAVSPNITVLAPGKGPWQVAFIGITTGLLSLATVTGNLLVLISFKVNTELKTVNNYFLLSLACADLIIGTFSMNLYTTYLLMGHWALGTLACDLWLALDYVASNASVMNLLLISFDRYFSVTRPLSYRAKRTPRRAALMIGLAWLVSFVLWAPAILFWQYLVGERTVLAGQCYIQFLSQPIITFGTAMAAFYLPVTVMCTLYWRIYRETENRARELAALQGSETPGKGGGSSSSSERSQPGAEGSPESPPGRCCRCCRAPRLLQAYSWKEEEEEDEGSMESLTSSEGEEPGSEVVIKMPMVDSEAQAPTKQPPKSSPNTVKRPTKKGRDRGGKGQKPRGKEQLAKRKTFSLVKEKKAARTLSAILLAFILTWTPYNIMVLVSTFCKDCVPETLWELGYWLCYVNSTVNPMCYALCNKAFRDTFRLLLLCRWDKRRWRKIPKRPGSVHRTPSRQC
Briefly: inhibition of ^3 HPRZ (pirenzepine, [N-methyl-^3 H]) binding to rat cerebral cortex membranes. On the set-up: species or system rat (male Wistar. The method, then: Furthermore the pharmacological properties of the compounds of the invention can also be illustrated by determining their capability to inhibit ^3 HPRZ (pirenzepine, [N-methyl-^3 H]) binding to rat cerebral cortex membranes.
Pirenzepine binds selectively to subtype of muscarinic receptors. Historically the type is named the M1 -site, whereas pirenzepine sensitive site would be more appropriate.
All preparations are performed at 0°-4° C. unless otherwise indicated. Fresh cortex ([…]) from male Wistar rats (150-200 g) is homogenized for 5-10 s in 10 mL 20 mM Hepes pH: 7.4, with an Ultra-Turrax homogenizer. The homogenizer is rinsed with 2×10 mL of buffer and the combined suspension centrifuged for 15 min. at 40,000×g. The pellet is washed three times with buffer. In each step the pellet is homogenized as before in 3×10 mL of buffer and centrifuged for 10 min. at 40,000×g.
The final pellet is homogenized in 20 mM Hepes pH: 7.4 (100 mL per g of original tissue) and used for binding assay. Aliquots of 0.5 mL is added 20 μl of test solution and 25 μL of ^3 HPRZ (1.0 nM, final conc.), mixed and incubated for 60 min. at 20° C. Non-specific binding is determined in triplicate using atropine (1 ,μg/mL, final conc.) as the test substance. After incubation samples are added 5 mL of ice-cold buffer and poured directly onto Whatman GF/C glass fiber filters under suction and immediately washed 2 times with 5 mL of ice-cold buffer. The amount of radioactivity on the filters are determined by conventional liquid scintillation counting. Specific binding is total binding minus non-specific binding.
Test substances are dissolved in 10 mL water, at a concentration of 0.22 mg/mL.
The test value will be given as IC50 (the concentration (nM) of the test substance which inhibits the specific binding of ^3 HPRZ by 50%). IC50 =(applied test substance concentration) x(Cx /Co -Cx)nM where Co is specific binding in control assays and Cx is the specific binding in the test assay. (The calculations assume normal mass-action kinetics).

Where [3] appears, read: ^3 HPRZ 1.0 nM, rat cortex, 60 min. at 20° C., read-out: ^3 HPRZ IC50 (head from b208 on: Pir IC-50).

Take `Clc1ccc(OCCOc2nsnc2OC2CN3CCC2CC3)cc1` (racemic) [Compound 118, (±)-3-(2-[4-Chlorophenoxy]ethoxy)-4-(1-azabicyclo[2.2.2]octyl-3-oxy)-1,2,5-thiadiazole]: the figures for the half-inhibitory concentration (IC50) in test [1] and in test [2] were 7.2 nM and 70 nM, respectively.

In the case of `FC(F)(F)C(F)(F)C(F)(F)COc1nsnc1O[C@@H]1CN2CCC[C@H]1C2` (relative stereo) [Compound 187, (±)-endo-3-(4,4,4,3,3,2,2-Heptafluorobutoxy)-4-(1-azabicyclo[3.2.1]octyl-6-oxy)-1,2,5-thiadiazole], the half-maximal inhibitory concentration (IC50) in test [1] is 2.8 nM; in test [2], 1.6 nM.

For the molecule `c1nsnc1OCCOc1nsnc1OC1CN2CCC1CC2` (racemic) [Compound 132, (±)-3-(2-[3-{1,2,5-Thiadiazoyloxy}]ethoxy)-4-(1-azabicyclo[2.2.2]octyl-3-oxy)-1,2,5-thiadiazole], the IC50 in test [1] is 11 nM; in test [2], 66 nM.

Consider `CCC#CCCOc1nsnc1O[C@@H]1CN2CCC[C@H]1C2` (relative stereo) [Compound 176, (±)-endo-3-(3-Hexynyloxy)-4-(1-azabicyclo[3.2.1]octyl-6-oxy)-1,2,5-thiadiazole], for which the values for the half-inhibitory concentration (IC50) in test [1] and in test [2] (setting [3]) were 1.3 nM and 3 nM, respectively.

In the case of `Fc1ccc(CSc2nsnc2OC2CN3CCC2CC3)cc1` (racemic) [Compound 42, (±)-3-(4-Fluorobenzylthio)-4-(1-azabicyclo[2.2.2]octyl-3-oxy)-1,2,5-thiadiazole], the half-inhibitory concentration (IC50) in test [1] stood at 14 nM; in test [2] it was 9.3 nM.

For `COCCOc1nsnc1OC1CN2CCC1CC2` (racemic) [Compound 111, (±)-3-(2-Methoxyethoxy)-4-(1-azabicyclo[2.2.2]octyl-3-oxy)-1,2,5-thiadiazole], the IC50 in test [1] stood at 38 nM; in test [2], 85 nM.

As for `FC(F)(F)C(F)(F)C(F)(F)COc1nsnc1OC1CN2CCC1CC2` (racemic) [Compound 69, (±)3-(2,2,3,3,4,4,4-heptafluorobutyloxy)-4-[-3-(1-azabicyclo[2.2.2]octyloxy)]-1,2,5-thiadiazole], the values for the 50% inhibitory concentration (IC50) in test [1] and in test [2] were 29 nM and 20 nM, respectively.

Take `C#CC(C)Oc1nsnc1OC1CN2CCCC1C2` (mixture of isomers) [Compound 203, (±)-endo-3-(3-Butyn-2-oxy)-4-(1-azabicyclo[3.2.1]octyl-6-oxy)-1,2,5-thiadiazole]: the IC50 in test [1] came to 3.1 nM; in test [2] (setting [3]) it was 4.3 nM.

On to `O=C1CCCn2cccc21` [Compound 139, 1-azabicyclo[4.3.0]nona-6,8-diene-5-one], for which the concentration for half-maximal inhibition (IC50) in test [1] was 230 nM; in test [2] (setting [3]) it was 145 nM.

`c1ccc2c(c1)Sc1ccccc1N2CCCSc1nsnc1OC1CN2CCC1CC2` (racemic) [Compound 151, (±)-3-(3-[N-phenothiazinyl]propylthio)-4-(1-azabicyclo[2.2.2]octyl-3-oxy)-1,2,5-thiadiazole]: the IC50 in test [1] is 2070 nM; in test [2] (setting [3]), 2700 nM.

In the case of `CCCCCSc1nsnc1OC1CN2CCC1CC2` (racemic) [Compound 15, (±)-3-Pentylthio-4-(1-azabicyclo[2.2.2]octyl-3-oxy)-1,2,5-thiadiazole], the IC50 in test [1] amounted to 1.6 nM; in test [2], 2.3 nM.

As to `O=C1SCCN1CCCSc1nsnc1OC1CN2CCC1CC2` (racemic) [Compound 61, (±)-3-(3-N-(2-Thiazolidonyl)propylthio)-4-(1-azabicyclo[2.2.2]octyl-3-oxy)1,2,5-thiadiazole], the values for the IC50 in test [1] and in test [2] were 1.1 nM and 5.8 nM, respectively.

With `c1ccc2c(OCCOc3nsnc3OC3CN4CCC3CC4)cccc2c1` (racemic) [Compound 127, (±)-3-(2-[1-Napthyloxy]ethoxy)-4-(1-azabicyclo [2.2.2]octyl-3-oxy)-1,2,5-thiadiazole], the figures for the IC50 in test [1] and in test [2] (setting [3]) were 61 nM and 373 nM, respectively.

`C(CC1CC1)Oc1nsnc1OC1CN2CCC1CC2` (racemic) [Compound 114, (±)-3-(2-Cyclopropylethoxy)-4-(1-azabicyclo[2.2.2]octyl-3-oxy)-1,2,5-thiadiazole]: the IC50 came out at 9.3 nM in test [1] and 43 nM in test [2].

For the molecule `CCCCCSc1nsnc1O[C@@H]1CN2CCC1CC2` [Compound 16, (S)-3-Pentylthio-4-(1-azabicyclo[2.2.2]octyl-3-oxy)-1,2,5-thiadiazole], the results for the half-maximal inhibitory concentration (IC50) in test [1] and in test [2] were 6.4 nM and 2 nM, respectively.

Take `CCCCCSc1nsnc1O[C@@H]1CN2CCC[C@H]1C2` (relative stereo) [Compound 24, (±)-Endo-3-pentylthio-4-(1-azabicyclo[3.2.1]-octyl-6-oxy)-1,2,5-thiadiazole]: the IC50 in test [1] and in test [2] (setting [3]) was 19 nM each time.

As to `ClCCCOc1nsnc1O[C@@H]1CN2CCC[C@H]1C2` (relative stereo) [Compound 177, (±)-endo-3-(3-Chloropropoxy)-4-(1-azabicyclo[3.2.1]octyl-6-oxy)-1,2,5-thiadiazole], the figures for the IC50 in test [1] and in test [2] (setting [3]) were 1.1 nM and 2 nM, respectively.

As for `c1csc(-c2ccc(SCCSc3nsnc3OC3CN4CCC3CC4)s2)c1` (racemic) [Compound 59, (±)-3-(2-(2-(5-(2-Thienyl)thienyl)thio)ethylthio)-4-(1-azabicyclo[2.2.2]octyl-3-oxy)-1,2,5-thiadiazole], the figures for the 50% inhibitory concentration (IC50) in test [1] and in test [2] (setting [3]) were 104 nM and 102 nM, respectively.

As to `CCCCOc1nsnc1O[C@H]1CN2CC[C@H]1C2` (relative stereo) [Compound 26, (±)-Exo-3-butyloxy-4-(1-azabicyclo[2.2.1]heptyl-3-oxy)-1,2,5-thiadiazole], the results for the concentration for half-maximal inhibition (IC50) in test [1] and in test [2] were 11 nM and 37 nM, respectively.

As for `CSCCc1nsnc1OC1CN2CCC1CC2` (racemic) [Compound 99, (±)-3-(2-Methylthioethyl)-4-(1-azabicyclo[2.2.2]octyl-3-oxy)-1,2,5-thiadiazole], the IC50 is 41 nM in test [1] and 70 nM in test [2].

For `CCCCOc1nsnc1OC1CCN(C)C1` (racemic) [Compound 28, (±)-3-Butyloxy-4-(1-methyl-3-pyrrolidinyloxy)-1,2,5-thiadiazole], the IC50 in test [1] is 37 nM; in test [2] (setting [3]) it was 25 nM.

The term IC50 denotes the concentration that gives 50% inhibition.
